In PubChem BioAssay (NCI):
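Growth conditions: 96-well plates. Treatment: test compound, 48 hours, 5 concentrations. Analysis: linear interpolation between bracketing concentrations; unreached endpoints set to highest concentration. GI50 = concentration required for 50% inhibition of growth. TGI: total growth inhibition.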

Experiments:
Experiment in all cases: DTP human tumour cell line panel, 48 h
786-0 renal = system: 786-0 renal
HOP-92 NSCLC = system: HOP-92 NSCLC
HT29 colon = system: HT29 colon
LOX IMVI melanoma = system: LOX IMVI melanoma
NCI-H460 lung = system: NCI-H460 lung
NCI-H522 lung = system: NCI-H522 lung
OVCAR-4 ovarian = system: OVCAR-4 ovarian
SK-MEL-5 melanoma = system: SK-MEL-5 melanoma
SNB-75 CNS = system: SNB-75 CNS
UACC-62 melanoma = system: UACC-62 melanoma

| Structure (SMILES) | GI50 (786-0 renal) [µM] | TGI (786-0 renal) [µM] | GI50 (HOP-92 NSCLC) [µM] | TGI (HOP-92 NSCLC) [µM] | GI50 (HT29 colon) [µM] | TGI (HT29 colon) [µM] | GI50 (LOX IMVI melanoma) [µM] | TGI (LOX IMVI melanoma) [µM] | GI50 (NCI-H460 lung) [µM] | TGI (NCI-H460 lung) [µM] | GI50 (NCI-H522 lung) [µM] | TGI (NCI-H522 lung) [µM] | GI50 (OVCAR-4 ovarian) [µM] | TGI (OVCAR-4 ovarian) [µM] | GI50 (SK-MEL-5 melanoma) [µM] | TGI (SK-MEL-5 melanoma) [µM] | GI50 (SNB-75 CNS) [µM] | TGI (SNB-75 CNS) [µM] | GI50 (UACC-62 melanoma) [µM] | TGI (UACC-62 melanoma) [µM] |
| --- | --- | --- | --- | --- | --- | --- | --- | --- | --- | --- | --- | --- | --- | --- | --- | --- | --- | --- | --- | --- |
| COc1ccc(C[n+]2c3ccccc3n3c4ccc(N)cc4ccc32)c(OC)c1OC | 34.9 | > 100 | 0.571 | 3.77 | 4.63 | 33.2 | 10.7 | 36.3 | 3.54 | 18.2 | 2.08 | 15.7 | 2.27 | 31.9 | 1.44 | 7.27 | 1.45 | 10.8 | 2.62 | 10.9 |
| CN1C(OCc2ccccc2)c2c(ccc3c2OCO3)C2C=Cc3cc4c(cc3C21)OCO4 (stereo not given) | – | 2.65 | – | 2.3 | – | 1.47 | – | 0.337 | – | 3.09 | – | 2.16 | – | 3.06 | – | 2.58 | – | 2.71 | – | 2.46 |
| O=C1c2cccc3cc([N+](=O)[O-])cc(c23)C(=O)N1NC1=NCCN1 | – | > 100 | – | > 100 | – | > 100 | – | > 100 | – | > 100 | – | > 100 | – | > 100 | – | > 100 | – | > 100 | – | > 100 |
| CC(=O)Nc1ccc(-c2c3nc(c(-c4cc5ccccc5[n+](C)c4)c4ccc([nH]4)c(-c4ccc(NC(C)=O)cc4)c4nc(c(-c5cc6ccccc6[n+](C)c5)c5ccc2[nH]5)C=C4)C=C3)cc1 | 9.97 | 35.6 | 23.9 | > 50 | 40.3 | > 50 | 12.5 | > 50 | 13.8 | > 50 | 14.6 | > 50 | 3.76 | 30.3 | 21.8 | > 50 | 2.17 | 11.7 | 23.9 | > 50 |
| COc1cccc(C(=O)Nc2ccc(CN3CCc4nc5cc(OC)c(OC)cc5cc43)cc2)c1 | 3.02 | 9.71 | 1.92 | 7.45 | 2.59 | 7.05 | 2.37 | 6.5 | 2.84 | 8.71 | 3.94 | 18.3 | 3.32 | > 100 | 2.97 | 10.9 | 2.66 | > 100 | 7.13 | 21.3 |
| N=Nc1c(OC(=O)Nc2ccccc2)[nH]c2ccccc12 | – | 32.6 | – | 55.6 | – | 96.2 | – | 33.7 | – | 25.7 | – | 36.6 | – | 30.7 | – | 51.9 | – | 50 | – | 35.5 |
| CC(C)(C)[Si](C)(C)OCC1CCC(n2cnc3c(=O)[nH]cnc32)O1 (stereo not given) | – | > 100 | – | > 100 | – | > 100 | – | > 100 | – | > 100 | – | > 100 | – | > 100 | – | > 100 | – | 99.8 | – | > 100 |
| Nc1ncnc2c1ncn2C1OC(CSC(F)(F)F)C(O)C1O (stereo not given) | – | > 100 | – | > 100 | – | > 100 | – | > 100 | – | > 100 | – | > 100 | – | > 100 | – | > 100 | – | > 100 | – | > 100 |
